According to the NIST ThermoML archive (doi:10.1021/je100315g):

Experiments:
[1] = xn = mol fraction of the nth substance listed; conditions: 101 kPa, Liquid
[2] = 101 kPa, Liquid

C[S+](C)[O-] [dimethyl sulfoxide] + CCCC[n+]1ccn(C)c1.O=S(=O)([N-]S(=O)(=O)C(F)(F)F)C(F)(F)F
[1], x2 = 0
Conditions | mass density [kg/m3]
293.15 K | 1100.31
298.15 K | 1095.3
303.13 K | 1090.31
308.15 K | 1085.27
313.15 K | 1080.27

CCn1cc[n+](C)c1.O=S(=O)([N-]S(=O)(=O)C(F)(F)F)C(F)(F)F
[2]
Conditions | mass density [kg/m3]
293.15 K | 1522.08
298.15 K | 1516.96
303.13 K | 1511.85
308.15 K | 1506.8
313.15 K | 1501.74

CC#N [acetonitrile]
[2]
Conditions | mass density [kg/m3]
293.15 K | 781.89
298.15 K | 776.52
303.13 K | 771.12
308.15 K | 765.68
313.15 K | 760.2

CCCC[n+]1ccn(C)c1.O=S(=O)([N-]S(=O)(=O)C(F)(F)F)C(F)(F)F + C1CCOC1
mass density [kg/m3], [1]
Conditions | x1 = 0.0488 | x1 = 0.1139 | x1 = 0.1771 | x1 = 0.2815 | x1 = 0.4048 | x1 = 0.4897 | x1 = 0.6329 | x1 = 0.7468 | x1 = 0.9071 | x1 = 1
293.15 K | 978.17 | 1069.71 | 1136.61 | 1218.29 | 1286.31 | 1321.41 | 1367.37 | 1395.56 | 1426.74 | 1441.63
298.15 K | 973.69 | 1065.22 | 1132.17 | 1213.74 | 1281.83 | 1317.1 | 1362.88 | 1391.06 | 1421.92 | 1436.83
303.13 K | 970.01 | 1060.65 | 1128.01 | 1209.23 | 1277.24 | 1312.14 | 1358.73 | 1386.29 | 1417.19 | 1431.98
308.15 K | 964.12 | 1055.92 | 1122.34 | 1204.63 | 1272.69 | 1307.42 | 1353.21 | 1381.45 | 1412.45 | 1427.16

C[S+](C)[O-] [dimethyl sulfoxide] + CCn1cc[n+](C)c1.O=S(=O)([N-]S(=O)(=O)C(F)(F)F)C(F)(F)F
[1], x2 = 0
Conditions | mass density [kg/m3]
293.15 K | 1100.31
298.15 K | 1095.3
303.13 K | 1090.31
308.15 K | 1085.27
313.15 K | 1080.27

C[S+](C)[O-] [dimethyl sulfoxide]
[2]
Conditions | mass density [kg/m3]
293.15 K | 1100.31
298.15 K | 1095.3
303.13 K | 1090.31
308.15 K | 1085.27
313.15 K | 1080.27

CCCC[n+]1ccn(C)c1.O=S(=O)([N-]S(=O)(=O)C(F)(F)F)C(F)(F)F + C[S+](C)[O-]
mass density [kg/m3], [1]
Conditions | 293.15 K | 298.15 K | 303.13 K | 308.15 K | 313.15 K
x1 = 0.1025 | 1202.34 | 1197.39 | 1192.43 | 1187.49 | 1182.55
x1 = 0.196 | 1263.15 | 1258.21 | 1253.26 | 1248.31 | 1243.37
x1 = 0.2358 | 1283.38 | 1278.4 | 1273.45 | 1268.49 | 1263.51
x1 = 0.3241 | 1319.45 | 1314.52 | 1309.58 | 1304.64 | 1299.72
x1 = 0.4205 | 1349.72 | 1344.81 | 1339.88 | 1334.99 | 1330.05
x1 = 0.4785 | 1364.67 | 1359.72 | 1354.8 | 1349.87 | 1344.87
x1 = 0.5179 | 1373.61 | 1368.67 | 1363.77 | 1358.86 | 1353.93
x1 = 0.5911 | 1388.28 | 1383.33 | 1378.5 | 1373.59 | 1368.72
x1 = 0.6581 | 1400.07 | 1395.16 | 1390.25 | 1385.42 | 1380.54
x1 = 0.8232 | 1423.06 | 1418.22 | 1413.34 | 1408.48 | 1403.6
x1 = 1 | 1441.63 | 1436.83 | 1431.98 | 1427.16 | 1422.36

C1CCOC1 [tetrahydrofuran]
[2]
Conditions | mass density [kg/m3]
293.15 K | 887.41
298.15 K | 881.98
303.13 K | 876.47
308.15 K | 870.96

C1CCOC1 [tetrahydrofuran] + CCCC[n+]1ccn(C)c1.O=S(=O)([N-]S(=O)(=O)C(F)(F)F)C(F)(F)F
[1], x2 = 0
Conditions | mass density [kg/m3]
293.15 K | 887.41
298.15 K | 881.98
303.13 K | 876.47
308.15 K | 870.96

C1CCOC1 [tetrahydrofuran] + CCn1cc[n+](C)c1.O=S(=O)([N-]S(=O)(=O)C(F)(F)F)C(F)(F)F
[1], x2 = 0
Conditions | mass density [kg/m3]
293.15 K | 887.41
298.15 K | 881.98
303.13 K | 876.47
308.15 K | 870.96

CCn1cc[n+](C)c1.O=S(=O)([N-]S(=O)(=O)C(F)(F)F)C(F)(F)F + C1CCOC1
mass density [kg/m3], [1]
Conditions | x1 = 0.1037 | x1 = 0.2024 | x1 = 0.3255 | x1 = 0.3841 | x1 = 0.4425 | x1 = 0.5469 | x1 = 0.6863 | x1 = 0.7697 | x1 = 0.9177 | x1 = 1
293.15 K | 1065.02 | 1178.77 | 1278.55 | 1315.59 | 1347.51 | 1395.4 | 1444.8 | 1469.16 | 1505.22 | 1522.08
298.15 K | 1061.32 | 1173.6 | 1274.14 | 1310.96 | 1342.57 | 1390.69 | 1440.1 | 1464.51 | 1500.21 | 1516.96
303.13 K | 1056.14 | 1168.46 | 1269.66 | 1306.48 | 1337.7 | 1385.78 | 1435.45 | 1459.45 | 1495.17 | 1511.85
308.15 K | 1051.2 | 1163.55 | 1264.42 | 1301.8 | 1332.56 | 1381.31 | 1430.62 | 1454.67 | 1490.13 | 1506.8

CC#N [acetonitrile] + CCn1cc[n+](C)c1.O=S(=O)([N-]S(=O)(=O)C(F)(F)F)C(F)(F)F
[1], x2 = 0
Conditions | mass density [kg/m3]
293.15 K | 781.89
298.15 K | 776.52
303.13 K | 771.12
308.15 K | 765.68
313.15 K | 760.2

CCn1cc[n+](C)c1.O=S(=O)([N-]S(=O)(=O)C(F)(F)F)C(F)(F)F + CC#N
mass density [kg/m3], [1]
Conditions | x1 = 0.0533 | x1 = 0.1886 | x1 = 0.337 | x1 = 0.4724 | x1 = 0.652 | x1 = 0.8245 | x1 = 0.924 | x1 = 1
293.15 K | 946.96 | 1183.76 | 1316.94 | 1390.06 | 1452.53 | 1492.64 | 1510.36 | 1522.08
298.15 K | 941.54 | 1178.5 | 1311.68 | 1384.82 | 1447.4 | 1487.58 | 1505.26 | 1516.96
303.13 K | 936.1 | 1173.4 | 1306.48 | 1379.62 | 1442.24 | 1482.39 | 1500.2 | 1511.85
308.15 K | 930.61 | 1168.18 | 1301.14 | 1374.57 | 1437.1 | 1477.35 | 1495.13 | 1506.8
313.15 K | 925.26 | 1162.68 | 1296.39 | 1369.51 | 1432.02 | 1472.28 | 1490.11 | 1501.74

CC#N [acetonitrile] + CCCC[n+]1ccn(C)c1.O=S(=O)([N-]S(=O)(=O)C(F)(F)F)C(F)(F)F
[1], x2 = 0
Conditions | mass density [kg/m3]
293.15 K | 781.89
298.15 K | 776.52
303.13 K | 771.12
308.15 K | 765.68
313.15 K | 760.2

CCn1cc[n+](C)c1.O=S(=O)([N-]S(=O)(=O)C(F)(F)F)C(F)(F)F + C[S+](C)[O-]
mass density [kg/m3], [1]
Conditions | x1 = 0.0593 | x1 = 0.1959 | x1 = 0.3595 | x1 = 0.5086 | x1 = 0.6325 | x1 = 0.7778 | x1 = 0.9378 | x1 = 1
293.15 K | 1173.7 | 1289.73 | 1375.56 | 1427.76 | 1459.88 | 1489.12 | 1513.61 | 1522.08
298.15 K | 1168.67 | 1284.68 | 1370.44 | 1422.61 | 1454.75 | 1484.04 | 1508.51 | 1516.96
303.13 K | 1163.66 | 1279.59 | 1365.31 | 1417.47 | 1449.64 | 1478.96 | 1503.42 | 1511.85
308.15 K | 1158.66 | 1274.53 | 1360.26 | 1412.42 | 1444.59 | 1473.89 | 1498.38 | 1506.8
313.15 K | 1153.63 | 1269.48 | 1355.2 | 1407.36 | 1439.52 | 1468.84 | 1493.29 | 1501.74

CCCC[n+]1ccn(C)c1.O=S(=O)([N-]S(=O)(=O)C(F)(F)F)C(F)(F)F + CC#N
mass density [kg/m3], [1]
Conditions | x1 = 0.0971 | x1 = 0.2033 | x1 = 0.2989 | x1 = 0.471 | x1 = 0.6261 | x1 = 0.7423 | x1 = 0.8983 | x1 = 1
293.15 K | 1034.65 | 1175.45 | 1252.06 | 1335.15 | 1380.43 | 1404.79 | 1429.03 | 1441.63
298.15 K | 1029.33 | 1170.35 | 1247.09 | 1330.18 | 1375.57 | 1400.01 | 1424.12 | 1436.83
303.13 K | 1024.05 | 1165.12 | 1242.32 | 1325.41 | 1370.72 | 1395.36 | 1419.28 | 1431.98
308.15 K | 1019.47 | 1160.25 | 1237.21 | 1320.49 | 1365.88 | 1390.45 | 1414.54 | 1427.16
313.15 K | 1014.26 | 1155.05 | 1232.4 | 1315.67 | 1361.14 | 1385.64 | 1409.73 | 1422.36

CCCC[n+]1ccn(C)c1.O=S(=O)([N-]S(=O)(=O)C(F)(F)F)C(F)(F)F
[2]
Conditions | mass density [kg/m3]
293.15 K | 1441.63
298.15 K | 1436.83
303.13 K | 1431.98
308.15 K | 1427.16
313.15 K | 1422.36
